Test results as given in patent US20250154138A1, “Small Molecule IL-17A Modulators” (BeiGene, Ltd., priority 2022, published 2025).

Columns and labels:
[1] = tested on: IL-17-induced GROα secretion from HT-29 cells; assay: GROα release assay in human colorectal adenocarcinoma epithelial cell (HT-29, ELISA); assay type: cell-based; conditions: Homo sapiens, HT-29, 48 h, 10 ng/mL IL-17A, highest concentration 10 μM, read-out: Cellular assay HT29 cell/CXCL1 IC50
Method: The purpose of the assay is to test the ability of a compound to neutralize IL17A proteins. IL17 can stimulate human epithelial cells to secrete GROα. The ability of one compound of the invention to neutralize IL-17-induced GROα secretion from the human colorectal adenocarcinoma epithelia cell line HT-29 is tested in this assay.
HT-29 cells (human colorectal adenocarcinoma epithelia cell, ATCC) were stimulated with IL-17A (Novoprotein, #C774) in final concentration of 10 ng/mL. The resultant GROα response was measured using an ELISA kit from Invitrogen (#88-52122). HT-29 cells were cultured in complete medium (McCoy's 5A medium+10% FBS) and maintained in a tissue culture flask using standard techniques. On day 1, detached the cell by using TrypLE (Gibco, #12605036) and used the complete medium to neutralize. The cells were centrifuged at 11,00 rmp for 4 minutes. Re-suspended the cell pellet in complete medium and seeded 50,000 HT-29 cells into the 96-well assay plate (Corning, 3599) at 135 μL complete medium per well. The cells were incubated for overnight, at 37° C./5% CO2 to adherent the plate. On day 2, prepared a 4-fold serial dilution of the tested compound in DMSO. The highest concentration of the compound was 10 μM. Transferred 2 μL of the serial diluted compound from the serial dilution plate into the reagent plate which was contained 198 μL complete medium with 100 ng/mL IL-17A per well. The compounds were incubated with the IL-17A for 15 minutes. 15 μL mixtures from reagent plate were transferred into the cell assay plate. Incubated the plate at 37° C./5% CO2 for 48 hours. After the incubation, on day 4, GROα level were measured with GROα ELISA as the manufacturer's instructions. 50 μL supernatant was collected form the assay plate to ELISA plate. ELISA plate was read at 450 nm on a microplate reader and compared to a standard calibration curve.
Data were processed using GraphPad Prism. GROα concentration was calculated from the standard curve. IC50 was determined using the equation log concentration (inhibitor) against response and fitted to four parameters.

[2] = target: human IL-17A / human IL-17RA (Homo sapiens (Human), UniProt Q16552); assay: Human IL-17A biochemical assay (HTRF, blocking of IL-17A binding to IL-17RA); conditions: 0.4 nM IL-17A, 0.3 nM IL-17RA, max compound concentration 10 uM
Sequence of human IL-17A / human IL-17RA (Q16552 24-155): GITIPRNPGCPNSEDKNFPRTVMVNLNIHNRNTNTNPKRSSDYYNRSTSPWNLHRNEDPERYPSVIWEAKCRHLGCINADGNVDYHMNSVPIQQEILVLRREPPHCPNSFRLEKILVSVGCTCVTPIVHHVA
Summary of the method: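 HTRF competition: 0.4 nM recombinant human IL-17A pre-incubated 3 h at room temperature with compound (top 10 uM, 2.7-fold, 10 points) in HEPES pH 7.5 buffer, then 0.3 nM IL-17RA added for 1 h, then anti-6His-Tb/anti-human IgG-XL665 detection for 1 h.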

With `CNC(=O)C1(N2CC(C)(C)NC2=O)Cc2ccc(NC(=O)[C@@H](NC(=O)c3ccnn3C)C3CCCCC3)cc2C1` (stereo partly drawn) [Example 20, N-((1S)-1-cyclohexyl-2-((2-(4,4-dimethyl-2-oxoimidazolidin-1-yl)-2-(methylcarbamoyl)-2,3-dihydro-1H-inden-5-yl)amino)-2-oxoethyl)-1-methyl-1H-pyrazole-5-carboxamide] the IC50 [1] was 0.476 µM and the IC50 [2] was 0.98 µM.

`CC1CN(C2(CO)Cc3ccc(NC(=O)[C@@H](NC(=O)c4ccnn4C)C4CCCCC4)cc3C2)C(=O)N1` (stereo partly drawn) [Example 22, N-((1S)-1-cyclohexyl-2-((2-(hydroxymethyl)-2-(4-methyl-2-oxoimidazolidin-1-yl)-2,3-dihydro-1H-inden-5-yl)amino)-2-oxoethyl)-1-methyl-1H-pyrazole-5-carboxamide] showed an IC50 [1] of 7.12 µM and an IC50 [2] of 0.95 µM.

For `CC1CN(C2(C(=O)O)Cc3ccc(NC(=O)[C@@H](NC(=O)c4ccnn4C)C4CCCCC4)cc3C2)C(=O)N1` (stereo partly drawn) [Example 23, 5-((S)-2-cyclohexyl-2-(1-methyl-1H-pyrazole-5-carboxamido)acetamido)-2-(4-methyl-2-oxoimidazolidin-1-yl)-2,3-dihydro-1H-indene-2-carboxylic acid], the IC50 [1] was 3.66 µM and the IC50 [2] was 0.64 µM.

For `CCCC1CN(C2(C(=O)NC)Cc3ccc(NC(=O)[C@@H](NC(=O)c4ccnn4C)C4CCCCC4)cc3C2)C(=O)N1` (stereo partly drawn) [Example 26, N-((1S)-1-cyclohexyl-2-((2-(methylcarbamoyl)-2-(2-oxo-4-propylimidazolidin-1-yl)-2,3-dihydro-1H-inden-5-yl)amino)-2-oxoethyl)-1-methyl-1H-pyrazole-5-carboxamide], the IC50 [1] was 1.08 µM and the IC50 [2] was 0.36 µM.

`CNC(=O)C1(N2CC(C3CCC3)NC2=O)Cc2ccc(NC(=O)[C@@H](NC(=O)c3ccnn3C)C3CCCCC3)cc2C1` (stereo partly drawn) [Example 27, N-((1S)-2-((2-(4-cyclobutyl-2-oxoimidazolidin-1-yl)-2-(methylcarbamoyl)-2,3-dihydro-1H-inden-5-yl)amino)-1-cyclohexyl-2-oxoethyl)-1-methyl-1H-pyrazole-5-carboxamide] was tested, and the IC50 [1] was 0.982 µM and the IC50 [2] was 0.16 µM.

`CNC(=O)C1(N2CC(C(C)C)NC2=O)Cc2cc3nc([C@@H](NC(=O)c4ccnn4C)C4CCCCC4)[nH]c3cc2C1` (stereo partly drawn) [Example 28, 2-((S)-cyclohexyl(1-methyl-1H-pyrazole-5-carboxamido)methyl)-6-(4-isopropyl-2-oxoimidazolidin-1-yl)-N-methyl-1,5,6,7-tetrahydroindeno[5,6-d]imidazole-6-carboxamide] showed an IC50 [1] of 0.0765 µM and an IC50 [2] of 0.394 µM.

`CNC(=O)C1(N2CC(C(C)C)NC2=O)Cc2cc3nc([C@@H](NC(=O)c4nonc4C)C4CCCCC4)[nH]c3cc2C1` (stereo partly drawn) [Example 29, N-((1S)-cyclohexyl(6-(4-isopropyl-2-oxoimidazolidin-1-yl)-6-(methylcarbamoyl)-1,5,6,7-tetrahydroindeno[5,6-d]imidazol-2-yl)methyl)-4-methyl-1,2,5-oxadiazole-3-carboxamide] gave an IC50 [1] of 0.146 µM and an IC50 [2] of 0.16 µM.

For `CNC(=O)C1(N2CC(C(C)C)NC2=O)Cc2ccc(NC(=O)[C@@H](NC(=O)c3nonc3C)C3CCCCC3)cc2C1` (stereo partly drawn) [Example 30, N-((1S)-1-cyclohexyl-2-((2-(4-isopropyl-2-oxoimidazolidin-1-yl)-2-(methylcarbamoyl)-2,3-dihydro-1H-inden-5-yl)amino)-2-oxoethyl)-4-methyl-1,2,5-oxadiazole-3-carboxamide], the IC50 [1] was 0.576 µM and the IC50 [2] was 0.058 µM.

`CC[C@@H]1CN(C2(C(=O)NC)Cc3cc4nc([C@@H](NC(=O)c5ccnn5C)C5CCCCC5)[nH]c4cc3C2)C(=O)N1` [Example 31, 2-((S)-cyclohexyl(1-methyl-1H-pyrazole-5-carboxamido)methyl)-6-((R)-4-ethyl-2-oxoimidazolidin-1-yl)-N-methyl-1,5,6,7-tetrahydroindeno[5,6-d]imidazole-6-carboxamide] showed an IC50 [1] of 0.116 µM and an IC50 [2] of 0.203 µM.

`CC[C@@H]1CN(C2(C(=O)NC)Cc3cc4nc([C@@H](NC(=O)c5nonc5C)C5CCCCC5)[nH]c4cc3C2)C(=O)N1` [Example 32, N-((1S)-cyclohexyl(6-((R)-4-ethyl-2-oxoimidazolidin-1-yl)-6-(methylcarbamoyl)-1,5,6,7-tetrahydroindeno[5,6-d]imidazol-2-yl)methyl)-4-methyl-1,2,5-oxadiazole-3-carboxamide] gave an IC50 [1] of 0.135 µM and an IC50 [2] of 0.062 µM.

Compound `CNC(=O)C1(N2CC(C(C)COC)NC2=O)Cc2ccc(NC(=O)[C@@H](NC(=O)c3ccnn3C)C3CCCCC3)cc2C1` (stereo partly drawn) [Example 35, N-((1S)-1-cyclohexyl-2-((2-(4-(1-methoxypropan-2-yl)-2-oxoimidazolidin-1-yl)-2-(methylcarbamoyl)-2,3-dihydro-1H-inden-5-yl)amino)-2-oxoethyl)-1-methyl-1H-pyrazole-5-carboxamide] has an IC50 [1] of 2.02 µM and an IC50 [2] of 0.293 µM.

For `CNC(=O)C1(N2C[C@@H](Cc3ccccc3)NC2=O)Cc2ccc(NC(=O)[C@@H](NC(=O)c3ccnn3C)C3CCCCC3)cc2C1` (stereo partly drawn) [Example 37, N-((1S)-2-((2-((R)-4-benzyl-2-oxoimidazolidin-1-yl)-2-(methylcarbamoyl)-2,3-dihydro-1H-inden-5-yl)amino)-1-cyclohexyl-2-oxoethyl)-1-methyl-1H-pyrazole-5-carboxamide], the IC50 [1] was 1.48 µM and the IC50 [2] was 0.112 µM.

`CNC(=O)C1(N2CC(C(C)C)NC2=O)Cc2ccc(NC(=O)[C@@H](NC(=O)c3ccnn3C)C3CCCCC3)cc2C1` (stereo partly drawn) [Example 38, N-((1S)-1-cyclohexyl-2-((2-(4-isopropyl-2-oxoimidazolidin-1-yl)-2-(methylcarbamoyl)-2,3-dihydro-1H-inden-5-yl)amino)-2-oxoethyl)-1-methyl-1H-pyrazole-5-carboxamide] was tested, and the IC50 [1] was 0.156 µM and the IC50 [2] was 0.046 µM.

`CNC(=O)C1(N2C[C@@H](C(C)C)NC2=O)Cc2ccc(NC(=O)[C@@H](NC(=O)c3ccnn3C)C3CCCCC3)cc2C1` (stereo partly drawn) [Example 39, N-((1S)-1-cyclohexyl-2-((2-((R)-4-isopropyl-2-oxoimidazolidin-1-yl)-2-(methylcarbamoyl)-2,3-dihydro-1H-inden-5-yl)amino)-2-oxoethyl)-1-methyl-1H-pyrazole-5-carboxamide] was tested, and the IC50 [1] was 0.0564 µM and the IC50 [2] was 0.0226 µM.

`CNC(=O)C1(N2C[C@@H](C(C)C)NC2=O)Cc2ccc(NC(=O)[C@@H](NC(=O)c3nonc3C)C3CCCCC3)cc2C1` (stereo partly drawn) [Example 40, N-((1S)-1-cyclohexyl-2-((2-((R)-4-isopropyl-2-oxoimidazolidin-1-yl)-2-(methylcarbamoyl)-2,3-dihydro-1H-inden-5-yl)amino)-2-oxoethyl)-4-methyl-1,2,5-oxadiazole-3-carboxamide] gave an IC50 [1] of 0.143 µM and an IC50 [2] of 0.025 µM.

In the case of `CNC(=O)C1(N2C[C@@H](C3CC3)NC2=O)Cc2ccc(NC(=O)[C@@H](NC(=O)c3ccnn3C)C3CCCCC3)cc2C1` (stereo partly drawn) [Example 41, N-((1S)-1-cyclohexyl-2-((2-((R)-4-cyclopropyl-2-oxoimidazolidin-1-yl)-2-(methylcarbamoyl)-2,3-dihydro-1H-inden-5-yl)amino)-2-oxoethyl)-1-methyl-1H-pyrazole-5-carboxamide], the IC50 [1] is reported as 0.495 µM and the IC50 [2] is reported as 0.1 µM.
